From patent publication US20140024700A1, “BLOOD-BORNE MIRNAS AS SURROGATE MARKERS OF DRUG EFFICACY FOR CARDIAC CONDITIONS” (miRagen Therapeutics, Inc., priority 2010, published 2014)
Like-named read-outs stand apart in the source and are kept apart here.

Test system: plasma miRNAs
Conditions: 8 weeks
Experimental: To evaluate plasma biomarkers over time, surgically implanted catheters were used for non-invasive bi-weekly blood draws in the Dahl salt-sensitive rat model of congestive heart failure described in Example 1. Changes in plasma miRNA biomarkers with disease progression and therapeutic treatment with an LNA-modified antisense oligonucleotide targeting miR-208a (M−10101; SEQ ID NO: 12) were evaluated. The flowing experimental groups were tested:
The M-10591 oligonucleotide (SEQ ID NO:13) targets miR-67 from C. elegans, which is not expressed in mammalian tissue, and therefore was used as a control. Dahl salt-sensitive rats were implanted with catheters at week zero and baseline blood was taken. Following catheter implant surgery, high-salt diet was initiated. One week following the initiation of the 4.0% NaCl diet, rats were dosed subcutaneously (s.c.) with saline or antimiRs at 25 mg/kg once every 2 weeks. On alternating weeks (non-injection weeks) 1.5 mls of blood was drawn from the catheter for plasma isolation. Animals were sacrificed 8 weeks after the initial injection.
Plasma and tissue molecular endpoints were evaluated using Taqman RT-PCR assays. Specifically, RNA from plasma samples was isolated using Trizol LS (Invitrogen). Synthetic C. elegans miRNA sequences for lin-4 and miR-2 were added at a constant concentration to each sample to monitor purification efficiency and for normalization. Tissue RNA was isolated using standard Trizol RNA isolation. Standard ABI Taqman miRNA assay protocols were used to determine relative miRNA levels.
Changes in plasma miRNA levels between rats suffering from hypertension-induced heart failure (H S/saline group) and rats treated with an antimiR-208a oligonucleotide (HS/M-10101) were assessed at 8 weeks by both miRNA Taqman array card analysis (Tables 2 and 3) and real-time PCR analysis (Table 4).

[1] = Down Regulated, HS-Saline vs. HS-10101, Real Time PCR
[2] = Up-regulated, HS-Saline vs. HS-10101, Real Time PCR
[3] = decreased in response to treatment, HS-saline/HS-10101, array card
[4] = increased in response to treatment, HS-10101/HS-Saline, array card

M-10101: antimiR targeting bases 2 to 17 of mature miR-208a, LNA and DNA linked by phosphorothioate bonds; 5′-CTTTTTGCTCGTCTTA-3′ (SEQ ID NO: 12) (all phosphorothioate, sugars by position and methylation of C not given here; LNA/DNA mixmer; listed as Homo sapiens)
Fold change of plasma hsa-miR-16 [1]: 3.45 fold | Fold change of plasma hsa-miR-20a [1]: 1.92 fold | Fold change of plasma hsa-miR-20b [1]: 2.10 fold | Fold change of plasma hsa-miR-21 [1]: 1.48 fold | Fold change of plasma hsa-miR-22 [1]: 1.50 fold | Fold change of plasma hsa-miR-27a [1]: 2.10 fold | Fold change of plasma hsa-miR-92a [1]: 2.32 fold | Fold change of plasma hsa-miR-93 [1]: 2.87 fold | Fold change of plasma hsa-miR-106b [1]: 2.57 fold | Fold change of plasma hsa-miR-122 [1]: 1.36 fold | Fold change of plasma hsa-miR-126 [1]: 1.30 fold | Fold change of plasma hsa-miR-133a [1]: 1.29 fold | Fold change of plasma hsa-miR-140 [1]: 2.13 fold | Fold change of plasma hsa-miR-150 [1]: 2.07 fold | Fold change of plasma hsa-miR-185 [1]: 2.35 fold | Fold change of plasma hsa-miR-210 [1]: 2.31 fold | Fold change of plasma hsa-miR-223 [1]: 3.02 fold | Fold change of plasma hsa-miR-320 [1]: 3.16 fold | Fold change of plasma hsa-miR-378 [1]: 1.74 fold | Fold change of plasma hsa-miR-378* [1]: 1.38 fold | Fold change of plasma hsa-miR-423-5p [1]: 2.52 fold | Fold change of plasma hsa-miR-499 [1]: 1.26 fold | Fold change of plasma hsa-miR-19b [2]: 2.68 fold | Fold change of plasma hsa-miR-125a-5p [2]: 2.05 fold | Fold change of plasma hsa-miR-143 [2]: 1.53 fold | Fold change of plasma hsa-miR-145 [2]: 2.17 fold | Fold change of plasma hsa-miR-195 [2]: 2.10 fold | Fold change of plasma hsa-miR-199b-5p [2]: 2.39 fold | Fold change of plasma hsa-miR-204 [2]: 2.18 fold | Fold change of plasma hsa-miR-214 [2]: 1.49 fold | Fold change of plasma hsa-let-7b [3]: 1.09 fold | Fold change of plasma hsa-miR-16 [3]: 2.04 fold | Fold change of plasma hsa-miR-17 [3]: 1.41 fold | Fold change of plasma hsa-miR-18a [3]: 2.01 fold | Fold change of plasma hsa-miR-20a [3]: 2.43 fold | Fold change of plasma hsa-miR-20b [3]: 4.87 fold | Fold change of plasma hsa-miR-24 [3]: 1.17 fold | Fold change of plasma hsa-miR-25 [3]: 1.33 fold | Fold change of plasma hsa-miR-26b [3]: 1.98 fold | Fold change of plasma hsa-miR-27a [3]: 2.74 fold | Fold change of plasma hsa-miR-27b [3]: 1.18 fold | Fold change of plasma hsa-miR-29c [3]: 1.34 fold | Fold change of plasma hsa-miR-30a [3]: 1.28 fold | Fold change of plasma hsa-miR-30b [3]: 1.21 fold | Fold change of plasma hsa-miR-92a [3]: 1.20 fold | Fold change of plasma hsa-miR-93 [3]: 2.93 fold | Fold change of plasma hsa-miR-101a [3]: 1.11 fold | Fold change of plasma hsa-miR-103a [3]: 1.16 fold | Fold change of plasma hsa-miR-106b [3]: 2.15 fold | Fold change of plasma hsa-miR-122 [3]: 1.59 fold | Fold change of plasma hsa-miR-125b-5p [3]: 1.51 fold | Fold change of plasma hsa-miR-133a [3]: 2.21 fold | Fold change of plasma hsa-miR-140-5p [3]: 3.23 fold | Fold change of plasma hsa-miR-148a [3]: 2.49 fold | Fold change of plasma hsa-miR-181c [3]: 1.37 fold | Fold change of plasma hsa-miR-182 [3]: 1.39 fold | Fold change of plasma hsa-miR-184 [3]: 1.42 fold | Fold change of plasma hsa-miR-185 [3]: 7.02 fold | Fold change of plasma hsa-miR-188-5p [3]: 1.76 fold | Fold change of plasma hsa-miR-192 [3]: 1.92 fold | Fold change of plasma hsa-miR-195 [3]: 1.73 fold | Fold change of plasma hsa-miR-197 [3]: 1.52 fold | Fold change of plasma hsa-miR-199a-5p [3]: 4.95 fold | Fold change of plasma hsa-miR-203 [3]: 1.13 fold | Fold change of plasma hsa-miR-218 [3]: 1.32 fold | Fold change of plasma hsa-miR-222 [3]: 1.11 fold | Fold change of plasma hsa-miR-223 [3]: 1.88 fold | Fold change of plasma hsa-miR-301a [3]: 1.79 fold | Fold change of plasma hsa-miR-320a [3]: 1.89 fold | Fold change of plasma hsa-miR-324-5p [3]: 1.39 fold | Fold change of plasma hsa-miR-335-5p [3]: 1.07 fold | Fold change of plasma hsa-miR-340-5p [3]: 1.19 fold | Fold change of plasma hsa-miR-365 [3]: 2.61 fold | Fold change of plasma hsa-miR-423-5p [3]: 4.18 fold | Fold change of plasma hsa-miR-451 [3]: 3.28 fold | Fold change of plasma hsa-miR-484 [3]: 1.46 fold | Fold change of plasma hsa-miR-486-5p [3]: 1.49 fold | Fold change of plasma hsa-miR-542-3p [3]: 11.10 fold | Fold change of plasma hsa-miR-744 [3]: 1.83 fold | Fold change of plasma hsa-let-7c [4]: 1.54 fold | Fold change of plasma hsa-let-7e [4]: 1.66 fold | Fold change of plasma hsa-let-7g [4]: 3.02 fold | Fold change of plasma hsa-let-7d [4]: 1.98 fold | Fold change of plasma hsa-miR-19a [4]: 1.90 fold | Fold change of plasma hsa-miR-19b [4]: 3.27 fold | Fold change of plasma hsa-miR-26a [4]: 1.39 fold | Fold change of plasma hsa-miR-28 [4]: 6.61 fold | Fold change of plasma hsa-miR-29a [4]: 1.31 fold | Fold change of plasma hsa-miR-29b [4]: 2.67 fold | Fold change of plasma hsa-miR-30c [4]: 1.37 fold | Fold change of plasma hsa-miR-30e [4]: 1.06 fold | Fold change of plasma hsa-miR-31 [4]: 1.45 fold | Fold change of plasma hsa-miR-99b [4]: 2.63 fold | Fold change of plasma hsa-miR-107 [4]: 5.54 fold | Fold change of plasma hsa-miR-125a-3p [4]: 12.16 fold | Fold change of plasma hsa-miR-125a-5p [4]: 5.34 fold | Fold change of plasma hsa-miR-126 [4]: 1.27 fold | Fold change of plasma hsa-miR-126-5p (miR-126*) [4]: 2.01 fold | Fold change of plasma hsa-miR-128a [4]: 1.75 fold | Fold change of plasma hsa-miR-130a [4]: 2.30 fold | Fold change of plasma hsa-miR-130b [4]: 1.26 fold | Fold change of plasma hsa-miR-138 [4]: 1.08 fold | Fold change of plasma hsa-miR-139-5p [4]: 1.14 fold | Fold change of plasma hsa-miR-142-3p [4]: 25.04 fold | Fold change of plasma hsa-miR-142-5p [4]: 1.98 fold | Fold change of plasma hsa-miR-143 [4]: 8.47 fold | Fold change of plasma hsa-miR-145 [4]: 2.07 fold | Fold change of plasma hsa-miR-146a [4]: 1.17 fold | Fold change of plasma hsa-miR-152 [4]: 2.05 fold | Fold change of plasma hsa-miR-155 [4]: 1.73 fold | Fold change of plasma hsa-miR-181a [4]: 3.00 fold | Fold change of plasma hsa-miR-186 [4]: 1.83 fold | Fold change of plasma hsa-miR-187 [4]: 1.60 fold | Fold change of plasma hsa-miR-191 [4]: 1.23 fold | Fold change of plasma hsa-miR-196b [4]: 11.73 fold | Fold change of plasma hsa-miR-199a-3p [4]: 3.14 fold | Fold change of plasma hsa-miR-204 [4]: 4.61 fold | Fold change of plasma hsa-miR-214 [4]: 1.57 fold | Fold change of plasma hsa-miR-296-5p [4]: 18.29 fold | Fold change of plasma hsa-miR-302a [4]: 2.10 fold | Fold change of plasma hsa-miR-324-3p [4]: 1.07 fold | Fold change of plasma hsa-miR-331-3p [4]: 1.53 fold | Fold change of plasma hsa-miR-339-5p [4]: 2.18 fold | Fold change of plasma hsa-miR-340-3p [4]: 1.86 fold | Fold change of plasma hsa-miR-342-3p [4]: 1.15 fold | Fold change of plasma hsa-miR-375 [4]: 1.32 fold | Fold change of plasma hsa-miR-449a [4]: 2.99 fold | Fold change of plasma hsa-miR-487b [4]: 2.67 fold | Fold change of plasma hsa-miR-532-3p [4]: 1.72 fold | Fold change of plasma hsa-miR-574-3p [4]: 2.20 fold | Fold change of plasma hsa-miR-30d [4]: 1.29 fold
